IC50 data for two compounds are collected here from article PMC3985843 (Journal of the American Chemical Society, 2014).

Assay type in all cases: cell-based
In assay [1] the test system is P. falciparum D6 (CQS) strain. In words: in vitro antimalarial activity, chloroquine-sensitive D6 strain. As to conditions: Plasmodium falciparum, D6, read-out: IC50 against D6.
For assay [2], the system named is P. falciparum Dd2 (CQR) strain. In words: in vitro antimalarial activity, chloroquine-resistant Dd2 strain. The conditions noted are these: Plasmodium falciparum, DD2, read-out: IC50 against Dd2.
For assay [3], the system named is P. falciparum 7G8 (CQR) strain. The assay is described as follows: in vitro antimalarial activity, chloroquine-resistant 7G8 strain. The conditions noted are these: Plasmodium falciparum, 7G8, read-out: IC50 against 7G8.

A word on the IC50: it is the concentration that gives 50% inhibition. With `CO[C@@H]1CC(c2ccc[nH]2)=N[C@]12O[C@@H](C)C[C@@H]1CCCCCCCc3ccc([nH]3)[C@H]12` [compound 5, marineosin A], the IC50 in assay [1] was 138 nM; in assay [2], 127 nM; in assay [3], 199 nM.

Take `CCN(CC)CCCC(C)Nc1ccnc2cc(Cl)ccc12` (stereo not drawn) [chloroquine]: the results for the half-inhibitory concentration (IC50) in assay [1], in assay [2] and in assay [3] were 14.3 nM, 110 nM and 131 nM, respectively.
